Measured values from the CheMixHub viscosity set.
± gives the uncertainty stated by the source.

Test: xn = mol fraction of the nth substance listed
Details: 101 kPa

## O=CO + c1ccncc1
298.15 K, x1 = 0.1605
  viscosity: 0.9921 ± 0.026 mPa·s
298.15 K, x1 = 0.3041
  viscosity: 1.235 ± 0.033 mPa·s
298.15 K, x1 = 0.4426
  viscosity: 1.783 ± 0.047 mPa·s
298.15 K, x1 = 0.5254
  viscosity: 2.414 ± 0.064 mPa·s
298.15 K, x1 = 0.6438
  viscosity: 4.255 ± 0.11 mPa·s
298.15 K, x1 = 0.7065
  viscosity: 5.476 ± 0.15 mPa·s
298.15 K, x1 = 0.7478
  viscosity: 6.13 ± 0.17 mPa·s
298.15 K, x1 = 0.7762
  viscosity: 6.161 ± 0.17 mPa·s
298.15 K, x1 = 0.8243
  viscosity: 5.312 ± 0.14 mPa·s
298.15 K, x1 = 0.8859
  viscosity: 3.778 ± 0.1 mPa·s
298.15 K, x1 = 0.9381
  viscosity: 2.657 ± 0.071 mPa·s
323.15 K, x1 = 0.1605
  viscosity: 0.7018 ± 0.019 mPa·s
323.15 K, x1 = 0.3041
  viscosity: 0.8411 ± 0.022 mPa·s
323.15 K, x1 = 0.4426
  viscosity: 1.154 ± 0.031 mPa·s
323.15 K, x1 = 0.5254
  viscosity: 1.515 ± 0.04 mPa·s
323.15 K, x1 = 0.6438
  viscosity: 2.347 ± 0.063 mPa·s
323.15 K, x1 = 0.7065
  viscosity: 2.846 ± 0.077 mPa·s
323.15 K, x1 = 0.7478
  viscosity: 3.143 ± 0.085 mPa·s
323.15 K, x1 = 0.7762
  viscosity: 3.202 ± 0.087 mPa·s
323.15 K, x1 = 0.8243
  viscosity: 2.873 ± 0.077 mPa·s
323.15 K, x1 = 0.8859
  viscosity: 2.192 ± 0.058 mPa·s
323.15 K, x1 = 0.9381
  viscosity: 1.616 ± 0.043 mPa·s

## CCCCCBr + Cc1cc(C)cc(C)c1
308.15 K, x2 = 0.1098
  viscosity: 0.6376 ± 0.0053 mPa·s
308.15 K, x2 = 0.2005
  viscosity: 0.6292 ± 0.0052 mPa·s
308.15 K, x2 = 0.2983
  viscosity: 0.6179 ± 0.0051 mPa·s
308.15 K, x2 = 0.4035
  viscosity: 0.6093 ± 0.0051 mPa·s
308.15 K, x2 = 0.4979
  viscosity: 0.6042 ± 0.005 mPa·s
308.15 K, x2 = 0.6027
  viscosity: 0.5945 ± 0.005 mPa·s
308.15 K, x2 = 0.802
  viscosity: 0.5739 ± 0.0048 mPa·s
308.15 K, x2 = 0.8481
  viscosity: 0.5719 ± 0.0048 mPa·s
308.15 K, x2 = 0.9023
  viscosity: 0.5699 ± 0.0048 mPa·s

## O=C([O-])C(F)(F)F.[Cs+] + O
298.15 K, x1 = 0.00102
  viscosity: 0.897 ± 0.009 mPa·s
298.15 K, x1 = 0.00146
  viscosity: 0.899 ± 0.009 mPa·s
298.15 K, x1 = 0.002202
  viscosity: 0.904 ± 0.009 mPa·s
298.15 K, x1 = 0.00303
  viscosity: 0.909 ± 0.009 mPa·s
298.15 K, x1 = 0.003649
  viscosity: 0.913 ± 0.009 mPa·s
298.15 K, x1 = 0.004385
  viscosity: 0.918 ± 0.009 mPa·s
298.15 K, x1 = 0.005137
  viscosity: 0.923 ± 0.009 mPa·s
298.15 K, x1 = 0.005844
  viscosity: 0.928 ± 0.009 mPa·s
298.15 K, x1 = 0.006694
  viscosity: 0.933 ± 0.009 mPa·s
298.15 K, x1 = 0.007272
  viscosity: 0.937 ± 0.009 mPa·s
298.15 K, x1 = 0.008058
  viscosity: 0.943 ± 0.009 mPa·s
298.15 K, x1 = 0.008713
  viscosity: 0.947 ± 0.009 mPa·s
298.15 K, x1 = 0.009254
  viscosity: 0.95 ± 0.009 mPa·s
298.15 K, x1 = 0.01011
  viscosity: 0.956 ± 0.009 mPa·s
303.15 K, x1 = 0.00102
  viscosity: 0.805 ± 0.008 mPa·s
303.15 K, x1 = 0.00146
  viscosity: 0.808 ± 0.008 mPa·s
303.15 K, x1 = 0.002202
  viscosity: 0.812 ± 0.008 mPa·s
303.15 K, x1 = 0.00303
  viscosity: 0.817 ± 0.008 mPa·s
303.15 K, x1 = 0.003649
  viscosity: 0.821 ± 0.008 mPa·s
303.15 K, x1 = 0.004385
  viscosity: 0.826 ± 0.008 mPa·s
303.15 K, x1 = 0.005137
  viscosity: 0.83 ± 0.008 mPa·s
303.15 K, x1 = 0.005844
  viscosity: 0.836 ± 0.008 mPa·s
303.15 K, x1 = 0.006694
  viscosity: 0.841 ± 0.008 mPa·s
303.15 K, x1 = 0.007272
  viscosity: 0.845 ± 0.008 mPa·s
303.15 K, x1 = 0.008058
  viscosity: 0.85 ± 0.009 mPa·s
303.15 K, x1 = 0.008713
  viscosity: 0.855 ± 0.009 mPa·s
303.15 K, x1 = 0.009254
  viscosity: 0.858 ± 0.009 mPa·s
303.15 K, x1 = 0.01011
  viscosity: 0.864 ± 0.009 mPa·s
308.15 K, x1 = 0.00102
  viscosity: 0.727 ± 0.008 mPa·s
308.15 K, x1 = 0.00146
  viscosity: 0.729 ± 0.008 mPa·s
308.15 K, x1 = 0.002202
  viscosity: 0.734 ± 0.008 mPa·s
308.15 K, x1 = 0.00303
  viscosity: 0.739 ± 0.008 mPa·s
308.15 K, x1 = 0.003649
  viscosity: 0.743 ± 0.008 mPa·s
308.15 K, x1 = 0.004385
  viscosity: 0.747 ± 0.008 mPa·s
308.15 K, x1 = 0.005137
  viscosity: 0.752 ± 0.008 mPa·s
308.15 K, x1 = 0.005844
  viscosity: 0.757 ± 0.008 mPa·s
308.15 K, x1 = 0.006694
  viscosity: 0.762 ± 0.008 mPa·s
308.15 K, x1 = 0.007272
  viscosity: 0.767 ± 0.008 mPa·s
308.15 K, x1 = 0.008058
  viscosity: 0.772 ± 0.008 mPa·s
308.15 K, x1 = 0.008713
  viscosity: 0.777 ± 0.008 mPa·s
308.15 K, x1 = 0.009254
  viscosity: 0.78 ± 0.008 mPa·s
308.15 K, x1 = 0.01011
  viscosity: 0.784 ± 0.008 mPa·s
313.15 K, x1 = 0.00102
  viscosity: 0.663 ± 0.008 mPa·s
313.15 K, x1 = 0.00146
  viscosity: 0.666 ± 0.008 mPa·s
313.15 K, x1 = 0.002202
  viscosity: 0.67 ± 0.008 mPa·s
313.15 K, x1 = 0.00303
  viscosity: 0.675 ± 0.008 mPa·s
313.15 K, x1 = 0.003649
  viscosity: 0.679 ± 0.008 mPa·s
313.15 K, x1 = 0.004385
  viscosity: 0.684 ± 0.008 mPa·s
313.15 K, x1 = 0.005137
  viscosity: 0.689 ± 0.008 mPa·s
313.15 K, x1 = 0.005844
  viscosity: 0.693 ± 0.008 mPa·s
313.15 K, x1 = 0.006694
  viscosity: 0.698 ± 0.008 mPa·s
313.15 K, x1 = 0.007272
  viscosity: 0.702 ± 0.008 mPa·s
313.15 K, x1 = 0.008058
  viscosity: 0.707 ± 0.008 mPa·s
313.15 K, x1 = 0.008713
  viscosity: 0.711 ± 0.008 mPa·s
313.15 K, x1 = 0.009254
  viscosity: 0.716 ± 0.008 mPa·s
313.15 K, x1 = 0.01011
  viscosity: 0.721 ± 0.008 mPa·s
